{"source": "paper PMC9942120", "about": "(iScience, 2023)", "test_in_all_cases": "direct LC-MS/MS profiling of modified tryptic peptides", "format_in_all_cases": "cell-based", "key": {"[1]": {"molecular_target": "ANXA2 (Homo sapiens, UniProt P07355)", "sequence (P07355 2-339)": "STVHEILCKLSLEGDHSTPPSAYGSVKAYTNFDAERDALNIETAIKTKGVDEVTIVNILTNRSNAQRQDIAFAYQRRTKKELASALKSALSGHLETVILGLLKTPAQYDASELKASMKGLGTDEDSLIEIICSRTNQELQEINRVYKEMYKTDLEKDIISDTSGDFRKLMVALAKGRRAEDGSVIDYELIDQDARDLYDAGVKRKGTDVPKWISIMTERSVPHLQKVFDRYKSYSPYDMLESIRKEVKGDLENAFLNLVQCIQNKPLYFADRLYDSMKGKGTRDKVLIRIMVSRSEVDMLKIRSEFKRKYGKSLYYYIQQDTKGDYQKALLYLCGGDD", "settings": "covalent at Cys9; H358 cells, […] AMG510, […] h (methods print […] h)"}, "[2]": {"molecular_target": "PCBP1 (Homo sapiens, UniProt Q15365)", "sequence (Q15365 whole entry)": "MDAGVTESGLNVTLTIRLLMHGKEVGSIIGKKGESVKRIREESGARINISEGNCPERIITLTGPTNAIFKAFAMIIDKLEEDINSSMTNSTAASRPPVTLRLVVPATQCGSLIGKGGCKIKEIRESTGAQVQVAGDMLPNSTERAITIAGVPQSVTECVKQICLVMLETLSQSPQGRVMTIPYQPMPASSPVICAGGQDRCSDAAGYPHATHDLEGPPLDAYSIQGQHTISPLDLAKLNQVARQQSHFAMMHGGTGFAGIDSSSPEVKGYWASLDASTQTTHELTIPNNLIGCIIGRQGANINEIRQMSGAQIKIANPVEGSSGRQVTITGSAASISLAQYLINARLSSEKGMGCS", "settings": "covalent at Cys194; H358 cells, […] AMG510, […] h (methods print […] h)"}, "[3]": {"molecular_target": "T1, S100A16 (Homo sapiens, UniProt Q96FQ6)", "T1 sequence (Q96FQ6 1-103)": "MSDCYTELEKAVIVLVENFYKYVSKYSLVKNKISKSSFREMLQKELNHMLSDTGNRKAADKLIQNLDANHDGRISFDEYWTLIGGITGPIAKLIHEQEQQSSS", "settings": "covalent at Cys4; H358 cells, […] AMG510, […] h (methods print […] h)"}, "[4]": {"molecular_target": "RPE (Homo sapiens, UniProt Q96AT9)", "sequence (Q96AT9 2-228)": "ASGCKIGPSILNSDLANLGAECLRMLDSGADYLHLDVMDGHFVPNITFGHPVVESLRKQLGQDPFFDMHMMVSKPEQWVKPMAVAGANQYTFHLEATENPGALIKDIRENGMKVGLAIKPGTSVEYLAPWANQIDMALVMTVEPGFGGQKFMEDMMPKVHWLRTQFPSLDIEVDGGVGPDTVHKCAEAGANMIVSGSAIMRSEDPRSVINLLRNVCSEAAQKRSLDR", "settings": "covalent at Cys5; H358 cells, […] AMG510, […] h (methods print […] h)"}}}
{"smiles": "C=CC(=O)N1CCN(c2nc(=O)n(-c3c(C)ccnc3C(C)C)c3nc(-c4c(O)cccc4F)c(F)cc23)[C@@H](C)C1", "note": "[AMG510]", "values": [{"measurement": "direct LC-MS/MS profiling of modified tryptic peptides", "setting": "[1]", "result": "multifunctional membrane-binding protein (ANXA2 C9)"}, {"measurement": "direct LC-MS/MS profiling of modified tryptic peptides", "setting": "[2]", "result": "tumor suppressor (PCBP1 C194)"}, {"measurement": "direct LC-MS/MS profiling of modified tryptic peptides", "setting": "[3]", "result": "transporters (RAE1 C106, S100A16C4, VDAC2 C91 and C225)"}, {"measurement": "direct LC-MS/MS profiling of modified tryptic peptides", "setting": "[4]", "result": "They included enzymes (PLOD3 C691, RPE C5, SPTLC2 C99, UBE2O C370, and TK1 C3)"}]}
